Experimental data: US20080201790A1, “Method and product for regulating cell responsiveness to external signals” (priority 1993, published 2008)

Tests used:
C-Raf = assay: Raf activation assay in L929 cells, C-Raf; assay type: cell-based, murine
p42/p44 MAPK = assay: MAPK assay (DEAE-Sephacel, EGFR662-681 peptide) in L929 cells; assay type: cell-based, murine
Protocol: In panel A cells were treated for 10 minutes with the indicated concentration of TNFα. JNK activation was measured using a solid phase kinase assay resulting in phosphorylation of GST-Jun. In […] the time course of MAPK activation is shown. MAPK was isolated from cell lysates on DEAE sephacel columns and MAPK activation was measured by phosphorylation of the EGFR peptide substrate. Panel C depicts the concentration curve of MAPK activation by TNFα. Cells were treated with the indicated concentration of TNFα and MAPK was assayed.
FIG. 26 depicts the activation of MAPK by bFGF in L929 cells. Serum starved L929 cells were stimulated for 10 min with the indicated concentration of bFGF.
Cell lines and culture. L929 cells (ATCC CCL1 were maintained in Dulbecco's modified Eagle's medium with 5% newborn calf serum and 5% bovine calf serum (BCS) supplemented with 100 ug/ml streptomycin and 100 U/ml penicillin. The cells were grown in 10 cm dishes at 37° C. in 7.5% CO2. Cells were made quiescent where indicated by incubation in Dulbecco's modified Eagle's medium and 0.1% bovine serum albumin for 24 h. Recombinant murine TNFα and recombinant human bFGF (147aa) were from R&D Systems, Minneapolis, Minn. Cells were pretreated where indicated with the MEK-1 inhibitor PD#098059 (Parke-Davis Pharmaceutical Corp. Ann Arbor, Mich.) for 1 h at 37° C. Cells were stimulated by incubation with the indicated cytokine or growth factor for various times at 37° C. Stimulation was stopped by rinsing the plates twice with ice cold phosphate buffered saline (PBS) and lysing the cells in the appropriate lysis buffer. Cells were scraped from the plates and nuclei were pelleted for 10 min at 14,000 RPM in a microcentrifuge. JNK assay. JNK activity was measured using a solid state kinase assay in which glutathione S-transferase-c-Jun (1-79) (GST-JUN) cound to glutathione-Sepharose 4B beads was used to affinity purify JNK and then JNK activity was measured in an in vitro kinase assay using the sepharose bound GST-Jun as a substrate (Hibi, M., et al. (1993) Genes & Development 7:2135-2148). Stimulated or unstimulated cells were lysed in 0.5% Nonidet P-40, 20 mM HEPES pH 7.2, 100 mM NaCl, 2 mM dithiothreitol, 1 mM EDTA, 1.0 mM phenylmethylsulfonylfluoride, 1 μg/ml aprotinin and the nuclei pelleted. Lysates were normalized for protein content. JNK was affinity purified from 50-100 μg of cell lysate by the addition of 10 ul of GST-Jun sepharose slurry (2 μg GST-Jun). Binding to GST-Jun efficiently isolates the two major forms of JNK (p45 and p55) and under the conditions used JNK isolation was linear for 10-250 μg of cell lysate. The lysates were rotated at 4° C. for 1-3 h. Beads were washed twice in lysis buffer and then twice in PAN (10 mM PIPES, pH 7.0, 100 mM NaCl, 21 μg/ml aprotinin). Kinase reactions were carried out at 30° C. for 15 min in 20 mM Hepes pH 7.2, 20 mM β-glycerophosphate, 10 mM p-nitrophenyl phosphate, 10 mM MgCl2, 1 mM dithiothreitol, 50 μm sodium vanadate, 10 μCi γ^32P-ATP 4300 Ci/mmole. The kinase reaction was linear from 0-30 min. MAPK Assay MAPK activity was measured exactly as described previously (Gardner, A. M., et al. (1994) Meth. Enzymol. 238:258-270) with the exception that MonoQ FPLC fractionation was replaced by step elution from a DEAE-Sephacel column using 0.5 M NaCl in loading buffer. The eluate was assayed in triplicate using the epidermal growth factor receptor 662-681 peptide (EGFR662-681) as a selective substrate for MAPK activity (Heasley, L. E., et al. (1994) American Journal of Physiology (Renal Fluid Electrolyte Physiol. 36) 267:F366-F373). […] Cells were lysed by scraping in ice cold RIPA buffer (50 mM Tris-HCl, pH 7.2, 150 mM NaCl, 0.1% SDS, 0.5% sodium deoxycholate, 1.0% Triton X-100, 10 mM sodium pyrophosphate, 25 mM β-glycerophosphate, 2 mM sodium vanadate, 2.1 μg/ml aprotinin) and the nuclei were pelletted. […]

Substance | activation of C-Raf (phosphorylation of kinase-inactive MEK-1) (C-Raf) | MAPK activity stimulated above basal (p42/p44 MAPK; 1 ng/ml TNFα) [%] | effect on MAPK activity (p42/p44 MAPK; 1 ng/ml TNFα, FIG. 27 panel B) | concentration required to stimulate p42/p44 MAPK 2-3 fold (p42/p44 MAPK; L929 cells) | effect on bFGF stimulation of MAPK activity (p42/p44 MAPK; L929 cells) | time to maximal stimulation of p42/p44 MAPK activity (p42/p44 MAPK; L929 cells) [min] | concentrations giving maximal stimulation of MAPK activity (p42/p44 MAPK; serum starved L929 cells, 10 min) [ng/mL]
TNFα | does not significantly activate either isoform of Raf | 20 | only modest stimulatory effects on MAPK activity | Greater than 10 ng/ml | had little or no effect on bFGF stimulation of MAPK activity | 5 to 10 | –
bFGF: recombinant human bFGF (147aa), basic fibroblast growth factor | activation of both B-Raf and C-Raf | – | – | – | – | – | 0.25 to 0.5
